From patent US11517591B2, “Immunogenic peptides specific to BCMA and TACI antigens” (Dana-Farber Cancer Institute, Inc., priority 2017, dated 2022) come the findings set out here.

The target in assay [1] is T1, HLA-A2 molecule (Homo sapiens, UniProt P04439, D140Y/D185E/D98H/E176V/E277Q/G131W/G231S/I119V/I121R/I166T/I218V/L300P/L318F/N151K/N90K/P208A/P217A/Q86G/Q94H/R138H/R169H/T345S).
T1 construct: endogenous in cells; host or cells: T2 cell line (human B and T cell hybrid), provided by Dr. J. Molldrem
As to the kind of experiment: Peptide/HLA-A2 complex stability on peptide-loaded T2 cells post-brefeldin A. The assay is classed as binding. Here is the method: The native and heteroclitic BCMA and TACI peptides were examined for HLA-A2 binding stability using the T2 cell line. T2 cells were pulsed with the respective peptide. After overnight incubation, the cells were washed to remove unbound peptide; they were evaluated for binding affinity as shown above and stability as following. The cells were incubated with 10 μg/ml Brefeldin A (Sigma) at 37° C. and 5% CO2 for 1 hour to block cell surface expression of newly synthesized HLA-A2 molecules. Peptide/HLA-A2 binding stability was evaluated at 0, 2, 4, 6 and 18 hours post-Brefeldin A treatment. Following the incubation period, the cells were harvested, washed, stained with mouse anti-human HLA-A2-FITC mAb and analyzed by flow cytometry. […] Therefore, the Heteroclitic #4 BCMA72-80 (YLMFLLRKI (SEQ ID NO: 13)) and Heteroclitic #3. TACI154-162 (YLSADQVAL (SEQ ID NO: 16) peptides were selected for further evaluation of their immunogenic potential to generate MM-specific cytotoxic T cells (CTLs).
(§1) T2 cells were pulsed overnight with various doses of peptide plus β2-microglobulin (3 μg/ml) (Sigma, St Louis, Mo.). Following overnight incubation, the cells were stained with HLA-A2-PE mAb and analyzed using a FACSCanto™ flow cytometer (BD). Peptide/HLA-A2 complex stability was measured on peptide loaded T2 cells at 0, 2, 4, 6 and 14 hours post-brefeldin A treatment by staining with HLA-A2-PE mAb and flow cytometric analysis.
(§2) T2 cells were pulsed overnight with various concentrations of peptide plus β2-microglobulin (3 μg/ml) (Sigma, St Louis, Mo.). Following overnight incubation, the cells were stained with HLA-A2-PE mAb and analyzed using a FACSCanto™ flow cytometer (BD). The stability of peptide/HLA-A2 complex binding was measured on peptide loaded T2 cells at 0, 2, 4, 6 and 14 hours post-brefeldin A treatment followed by staining with HLA-A2-PE mAb and flow cytometric analysis.

Assay [2] concerns the target T1, HLA-A2 molecule. As to the kind of experiment: HLA-A2 binding affinity assay on peptide-pulsed T2 cells (HLA-A2 up-regulation, flow cytometry MFI). Here is the method: The listed BCMA peptides were evaluated for HLA-A2-specific binding capacity using the T2 cell line. In the assay, T2 cells were washed, resuspended in serum-free AIM-V medium to a final concentration of 1×10^6 cells/ml and transferred into wells of a 24-well tissue culture plate. The cells were pulsed with different concentrations of respective BCMA peptide (0-200 μg/ml) plus 3 μg/ml human β2-microglobulin (Sigma) and incubated at 37° C., 5% CO2 in humidified air. Following overnight incubation, the cells were washed, stained with mouse anti-human HLA-A2-FITC mAb for 15 minutes at 4° C., washed and analyzed using a FACSort™ flow cytometer with CellQuest™ v2.1 software (Becton Dickinson, San Jose, Calif.). […] Among the BCMA peptides evaluated, “#4. […] (FIG. 2).
as §1, §2

For assay [3], the system named is peripheral blood mononuclear cells from HLA-A2+ normal donors. As to the kind of experiment: Generation and phenotypic characterization of BCMA-CTL stimulated with free or nanoparticle-encapsulated BCMA peptide. The assay is classed as cell-based, human. As for the experimental part:
BCMA peptide-specific CTL (BCMA-CTL) were generated ex vivo by repeated stimulation of peripheral blood mononuclear cells isolated from HLA-A2^+ normal donors' with (1) HLA-A2 specific BCMA immunogenic peptide (50 ug/ml), (2) a blank nanoparticle (PLGA or liposome) without peptide, or (3) the BCMA peptide (50 ug/ml) encapsulated nanoparticle (PLGA/peptide or liposome/peptide). PBMC were cultured in DMEM medium supplemented with 10% human AB serum (BioWhittaker) and pulsed weekly with the appropriate BCMA peptide for a total of 4 or 5 cycles. IL-2 (50 U/ml) was added to the T cell cultures two days after the second stimulation.
BCMA peptide-specific CD8^+ CTL were evaluated for Naïve: Memory cell development and expression of CD28 co-stimulatory molecule by flow cytometry. In addition, BCMA peptide-specific CD8^+ CTL were assessed within the cultures by staining with BCMA peptide-specific Tetramer-PE. Following tetramer staining at 37° C. for 30 min, cells were washed and stained with CD8-FITC and CD28-APC mAbs. After staining, cells were washed, fixed in 2% paraformaldehyde, acquired using a LSRII Fortessa™ flow cytometer, and analyzed using FACS DIVA™ v8.0 (BD) or FlowJo v10.0.7 (Tree star, Ashland, Oreg.) software. BCMA-CTL were analyzed for the presence\frequency of specific memory (central memory, effector memory)/non-memory populations within the total gated CD3^+CD8^+ T cell population.

[4] abbreviates: after the 5-cycle of peptide stimulation.

“YLMFLLRKI [heteroclitic BCMA72-80, heteroclitic BCMA peptide]”: in assay [1] (50 ug/ml, 0, 2, 4, 6 and 18 hours post-Brefeldin A, Example 4, FIGS. 6 and 7), the “HLA-A2 binding stability, heteroclitic vs native peptide” value is reported as “significant improvement in their HLA-A2 affinity at all the time points evaluated”. The “HLA-A2 affinity and stability at each time point, compared with HIV-Gag77-85 positive control” value in assay [1] (Example 12) is “highest level of HLA-A2 affinity and stability”. For the same sequence, the “HLA-A2 stability of heteroclitic vs native BCMA peptide” value in assay [1] (Example 12) was “further enhanced”. In addition, the “HLA-A2 binding affinity, heteroclitic vs native peptide” value in assay [2] (Example 4, FIGS. 4 and 5) is listed as “increased from their native peptide”. Moreover, in assay [2] (Example 12, n=3, p<0.05), the “change in HLA-A2 binding affinity of heteroclitic BCMA peptide compared to native peptide” value is “highest increase in HLA-A2 binding affinity”. Also, the “total CD45RO+ memory CTL” value is recorded as 15.3% in assay [3] (3′ stimulation), 19.5% in assay [3] (4′ stimulation) and 79.0% in assay [3] (5′ stimulation). Moreover, the “central memory (CM) CD8+ T cell subset” value in assay [3] (after 1 cycle of stimulation) was found to be 2.9%; in assay [3] (after 3 cycles of stimulation), 12.4%; in assay [3] (setting [4]), 3.5%. The “effector memory (EM) CD8+ T cell subset” value in assay [3] (after 1 cycle of stimulation) is 5.7%; in assay [3] (after 3 cycles of stimulation), 11.0%; in assay [3] (setting [4]) it was 95.4%.
